Tests used:
IL23p19 = experiment: LPS Induced IL23p19 in THP-1 Cells (with IFNγ Primed) Assay; type: cell-based; details: Homo sapiens, IFNγ primed (50 ng/mL), LPS 1 ug/mL, 18 hours, 10 pt, read-out: IL23-p19 ELISA, THP1-IFNy, LPS, 10 pt EC50
Description: LPS Induced IL23p19 in THP-1 Cells (with IFNγ Primed) Assay
THP-1 Cells (ATCC, Cat # TIB-202), Dimethyl Sulfoxide (DMSO) (Sigma-Aldrich, Cat # D2650), RPMI 1640 (Cellgro, Cat #10-040-CM), Fetal Bovine Serum (Sigma, Cat # F4135), Albumin From Bovine Serum (BSA) (Sigma-Aldrich, Cat # A7906), LPS (Serotype K-235, Sigma, Product Number L 2143), IFNγ (Peprotech, Cat #300-02)
Capture antibody: Human IL-23p19 ELISA (e-Bioscience, Cat. #14-7238-85),
Detection antibody: Primary Mouse Biotinylated anti-human IL-12(p40/p70) (e-Bioscience, Cat. #13-7129-85), Secondary HRP-conjugated Streptavidin (R&D Systems, Cat # DY998), 1×PBST Washing Buffer (PBS-Tween tablet) (VWR International, Cat #80058-558), ELISA Blocking Buffer (PBS with 1% BSA), ELISA Dilution Buffer (PBS with 1% BSA), 384 Well Flat-Bottom, MaxiSorp Black Immuno Plates (Thermo Scientific, Cat #12-565-346), 384 Well Flat-Bottom, White Tissue Culture Plates (Thermo Scientific, Cat #12-565-343), Super Signal ELISA Pico Chemiluminescent Substrate (Thermo Scientific, Cat #37070), Cell Titer Glo reagent (Promega, Cat # G7573), Positive control, IKK2VI inhibitor (Calbiochem, Cat #401483), AquaMax 4000 plate washer (Molecular Devices), Luminometer, Wallac Victor2 1420 Multilabel Counter. Method THP-1 Cells Stimulation:
On day 1, 50K/well THP-1 cells were seeded and primed with IFNγ (50 ng/mL) in 384-well plates for about 18 hours in RPMI media with 10% FBS. On day 2, the compound was serially diluted in DMSO from 5 mM in 3-fold dilutions, and then diluted 1:125 in RPMI media with 10% FBS. 50 μL/well 2× compound was added to 50 μL/well THP-1 cells (with IFNγ primed) in duplicate in 384 well tissue culture plates. The cells were pre-incubated with compound for 1 hour at 37° C., 5% CO2 before addition of 10 μL/well 11×LPS to give a final concentration of 1 ug/mL LPS. Day 3, after stimulation for 18 hours at 37° C., 5% CO2, the assay plate was centrifuged and 70 μL/well supernatant was harvested. IL-23p19 protein in 70 μL/well of supernatant was measured by sandwich ELISA, and 25 μl/well Cell Titer Glo reagent was added to the remaining cells to measure compound toxicity.
Human IL-23p19 Sandwich ELISA:
Maxisorp immuno ELISA plates were pre-coated with 25 μL/well of anti-IL-23p19 capture antibody (2.5 ug/mL) in PBS overnight at room temperature. After washing with 1×PBST, the plates were blocked using 100 μL/well of 1% BSA in PBS for 2 hours at room temperature. The plates were washed three times with 1×PBST and 70 μL/well supernatant were added. The plates were incubated at room temperature for 2 hours with shaking and washed three times with 1×PBST. 25 μL/well of biotin labeled anti-IL-12(p40/p70) detection antibody (100 ng/mL) in PBS with 1% BSA was added and the plates were incubated at room temperature for 2 hours with shaking. After washing three times with 1×PBST, 25 μL/well of streptavidin-HRP (1:200) in PBS with 1% BSA was added and the plates were incubated at room temperature for 20 minutes with shaking. The plates were washed three times with 1×PBST and 25 μL/well of Super Signal ELISA Pico Chemiluminescent Substrate were added. The plates were read with a luminometer, and the chemiluminescence values were entered into Athena (Rigel) for curve fitting, EC50 calculation, and database storage.

IL23-p19 = experiment: Compound screening using DC cells: LPS-induced IL-23 (p19/p40) ELISA in IFNγ-primed dendritic cells differentiated from human PBMC; type: cell-based; details: Dendritic cell, human PBMC-derived dendritic cells, LPS 1 μg/ml, 18 hours, 10 pt
Procedure: Compound Screening Using DC Cells
Human PBMC cells (400 million) obtained from the vendor were transferred into a T-175 flask containing 15 ml RPMI media (10% FBS) and incubate for 2 hours at 37° C. After 2 hours, the media including floating cells was aspirated out carefully and 12 ml of fresh RPMI media (10% FBS) containing GMCSF (100 ng/ml) and IL4 (20 ng/ml) was added, and the flask was kept in a 37° C. incubator for 7 days.
After 3 days, fresh GMCSF (100 ng/ml) and IL4 (20 ng/ml) were added to the flask and the incubation continued. After 7 days, the fully differentiated cells were harvested by spinning down (1200 rpm/5 min) and aspirating the media. The cells were suspended in fresh RPMI media (10% FBS) containing 50 ng/ml IFNγ (1000 U/ml) and then plated (50K/well in 100 μl) onto a white clear bottom 96 well plate and left in a 37° C. incubator for 24 hours.
After 24 hours incubation, 100 μl of RPMI media was added containing 2× concentrated test compound per well to the above cell-culture media (final concentration becomes 1×) and the plates were pre-incubated for 1 hour at 37° C. before stimulating with LPS.
After 1 hour compound pre-incubation, 10 μl per well of 20× concentrated LPS solution in RPMI media was added to give a final concentration of 1 μg/ml. The mixture was shaken and incubated the plates at 37° C. for an additional 18 hours.
155 μl of the supernatant was harvested from each well carefully (without the tip touching the bottom of the well) and to the remaining 50 μl/well of the cell culture plate was added 50 μl of Cell Titer Glo reagent. The mixture was incubated for 1-2 minutes on a shaker and the plate was read for luminescence intensity to determine the compound cytotoxicity. The cell culture supernatant collected above was used to carry out IL23 ELISA (65 μl—Supernatant) and IL10 ELISA (90 μl—Supernatant) as described below.
Human IL-23 (p19/p40) ELISA Protocol (e-Biosciences)
To 10.5 ml PBS add 50 μl of anti-IL23 (p19) was added capture antibody (2.5 μg/ml). The mixture was mixed well and 100 μl of the coating solution was added to each well of the 96 well white plates from Pierce. The wells were covered and incubated overnight at 4° C.
The anti-IL23 (p19)-antibody-coated plates were washed 2× using TBST (use plate washer) and blocked using 200 μl of 0.5% Casein for 1.5-2 hours at room temperature with shaking.
The plates were washed 2× using TBST and the supernatant was transferred (65 μl/well) to the above pre-blocked/IL23(p19)-antibody-coated 96 well plate, and incubated at room temperature for 1.5 hours with shaking.
The plates were washed 4× using TBST (plate washer) and 100 μl/well detection antibody solution prepared from 2 μl of biotin labeled anti-IL-12 (p40/p70) antibody in 11 ml 1% BSA/PBS solution (I-5000 dilution) was added. The plates were incubated for 1 hour with shaking at Room temperature.
Again, the plates were washed 4× with TBST and 100 μl of HRP labeled Streptavidin (R&D Systems) solution (10 μl/10 ml 1% BSA solution) was added, and the plates were incubated at room temperature for another 45 minutes with shaking.
After 45 minutes, the plates were washed with TBST 4× and 100 ul/well Super Signal ELISA Pico Chemiluminescent Substrate from Pierce (3.5 ml A+3.5 ml B+3.5 ml MQ water) was added. The plates were shaken for 1-2 minutes then read on a plate reader.

Compound `O=C(Nc1cc2oc(N3CCOCC3)nc2cc1N1CCCC(F)(F)C1)c1ccc(-c2cn[nH]c2)o1` [Compound I-42, N-(5-(3,3-difluoropiperidin-1-yl)-2-morpholinobenzo[d]oxazol-6-yl)-5-(1H-pyrazol-4-yl)furan-2-carboxamide] has an EC50 (IL23p19) of 60.6 nM and an EC50 (IL23-p19) of 84.8 nM.
`CN(CCN1CCOCC1)c1nc2cc(N3CCCCC3)c(NC(=O)c3csc(-c4cn[nH]c4)n3)cc2o1` [Compound I-54, N-(2-(methyl(2-morpholinoethyl)amino)-5-(piperidin-1-yl)benzo[d]oxazol-6-yl)-2-(1H-pyrazol-4-yl)thiazole-4-carboxamide] showed an EC50 (IL23p19) of 106 nM and an EC50 (IL23-p19) of 60.3 nM.
`O=C(Nc1cc2oc(N3CCOCC3)nc2cc1N1CCCCC1)c1ccc(-c2cc[nH]n2)o1` [Compound I-4, N-(2-morpholino-5-(piperidin-1-yl)benzo[d]oxazol-6-yl)-5-(1H-pyrazol-3-yl)furan-2-carboxamide] was tested, and the EC50 (IL23p19) was 901 nM and the EC50 (IL23-p19) was 12100 nM.
`Cc1cc(-c2ccc(C(=O)Nc3cc4sc(N5CCOCC5)nc4cc3N3CCCCC3)o2)ccn1` [Compound I-9, 5-(2-methylpyridin-4-yl)-N-(2-morpholino-5-(piperidin-1-yl)benzo[d]thiazol-6-yl)furan-2-carboxamide] was tested, and the EC50 (IL23p19) was 52100 nM and the EC50 (IL23-p19) was 897 nM.
`O=C(Nc1cc2oc(N3CCOCC3)nc2cc1N1CCC(F)CC1)c1csc(-c2cn[nH]c2)n1` [Compound I-25, N-(5-(4-fluoropiperidin-1-yl)-2-morpholinobenzo[d]oxazol-6-yl)-2-(1H-pyrazol-4-yl)thiazole-4-carboxamide] showed an EC50 (IL23p19) of 48.2 nM and an EC50 (IL23-p19) of 122 nM.
With `O=C(Nc1cc2sc(N3CCOCC3)nc2cc1N1CCCCC1)c1ccc(-c2cn[nH]c2)o1` [Compound I-7, N-(2-morpholino-5-(piperidin-1-yl)benzo[d]thiazol-6-yl)-5-(1H-pyrazol-4-yl)furan-2-carboxamide] the EC50 (IL23p19) was 26 nM and the EC50 (IL23-p19) was 13.6 nM.
For `O=C(Nc1cc2oc(N3CCOCC3)nc2cc1N1CCCCC1)c1ccc(-c2cn[nH]c2)o1` [Compound I-3, N-(2-morpholino-5-(piperidin-1-yl)benzo[d]oxazol-6-yl)-5-(1H-pyrazol-4-yl)furan-2-carboxamide], the EC50 (IL23p19) was 31.4 nM and the EC50 (IL23-p19) was 39.1 nM.
For `CN1CCN(c2nc3cc(N4CCCCC4)c(NC(=O)c4ccc(-c5cn[nH]c5)o4)cc3o2)CC1` [Compound I-16, N-(2-(4-methylpiperazin-1-yl)-5-(piperidin-1-yl)benzo[d]oxazol-6-yl)-5-(1H-pyrazol-4-yl)furan-2-carboxamide], the EC50 (IL23p19) was 25.8 nM and the EC50 (IL23-p19) was 32.2 nM.
`CN1CCN(c2nc3cc(N4CCCCC4)c(NC(=O)c4ccc(-c5ccc(N)nc5)o4)cc3o2)CC1` [Compound I-15, 5-(6-aminopyridin-3-yl)-N-(2-(4-methylpiperazin-1-yl)-5-(piperidin-1-yl)benzo[d]oxazol-6-yl)furan-2-carboxamide] showed an EC50 (IL23p19) of 73000 nM and an EC50 (IL23-p19) of 1690 nM.
`O=C(Nc1cc2oc(N3CCOCC3)nc2cc1N1CCCC(F)C1)c1ccc(-c2cn[nH]c2)o1` (stereo not drawn) [Compound I-38, N-(5-(3-fluoropiperidin-1-yl)-2-morpholinobenzo[d]oxazol-6-yl)-5-(1H-pyrazol-4-yl)furan-2-carboxamide] showed an EC50 (IL23p19) of 31.6 nM and an EC50 (IL23-p19) of 14.1 nM.
For `CN1CCN(c2nc3cc(N4CCCCC4)c(NC(=O)c4csc(-c5ccc(N)nc5)n4)cc3o2)CC1` [Compound I-19, 2-(6-aminopyridin-3-yl)-N-(2-(4-methylpiperazin-1-yl)-5-(piperidin-1-yl)benzo[d]oxazol-6-yl)thiazole-4-carboxamide], the EC50 (IL23p19) was 938 nM and the EC50 (IL23-p19) was 674 nM.
With `Cc1cc(-c2ccc(C(=O)Nc3cc4oc(N5CCOCC5)nc4cc3N3CCCC(F)(F)C3)o2)ccn1` [Compound I-43, N-(5-(3,3-difluoropiperidin-1-yl)-2-morpholinobenzo[d]oxazol-6-yl)-5-(2-methylpyridin-4-yl)furan-2-carboxamide] the EC50 (IL23p19) was 344 nM and the EC50 (IL23-p19) was 2620 nM.
In the case of `Cc1cc(-c2ccc(C(=O)Nc3cc4oc(N5CCOCC5)nc4cc3N3CCCC(F)C3)o2)ccn1` (stereo not drawn) [Compound I-39, N-(5-(3-fluoropiperidin-1-yl)-2-morpholinobenzo[d]oxazol-6-yl)-5-(2-methylpyridin-4-yl)furan-2-carboxamide], the EC50 (IL23p19) is reported as 355 nM and the EC50 (IL23-p19) is reported as 8070 nM.
`O=C(Nc1cc2oc(N3CCOCC3)nc2cc1N1CCCC1)c1ccc(-c2cn[nH]c2)o1` [Compound I-46, N-(2-morpholino-5-(pyrrolidin-1-yl)benzo[d]oxazol-6-yl)-5-(1H-pyrazol-4-yl)furan-2-carboxamide] showed an EC50 (IL23p19) of 58.7 nM and an EC50 (IL23-p19) of 37.5 nM.
`Cc1cc(-c2nc(C(=O)Nc3cc4oc(N5CCOCC5)nc4cc3N3CCCCC3)cs2)ccn1` [Compound I-14, 2-(2-methylpyridin-4-yl)-N-(2-morpholino-5-(piperidin-1-yl)benzo[d]oxazol-6-yl)thiazole-4-carboxamide] was tested, and the EC50 (IL23p19) was 10200 nM and the EC50 (IL23-p19) was 17900 nM.

— US10774076B2, “Benzazole compounds and methods for making and using the compounds” (Rigel Pharmaceuticals, Inc., priority 2015, dated 2020)
